According to patent US20200276136A1, “METHOD OF TREATING SELECTED PATIENT POPULATION EXPERIENCING DRAVET SYNDROME” (ZOGENIX INTERNATIONAL LIMITED, priority 2017, published 2020):

Columns and labels:
[1] = tested on: patients with Dravet syndrome; details: cited from earlier work
[2] = tested on: patients with Dravet syndrome; test: Study 1 (ZX008-1501/1502), Phase 3 double-blind placebo-controlled: efficacy on seizures; format: in vivo, human; details: 0.8 mg/kg/day; end of the T+M Period
Experimental: The first 119 subjects to be randomized in both identical studies combined were analyzed and reported as Study 1 (FIG. 1), covered by a Statistical Analysis Plan (SAP).
Primary and key secondary endpoints in the Study 1 SAP were pre-determined. All patients were treated twice per day over a period of 14 weeks using an oral syringe to administer the formulation. The treatment period included a two-week titration period and a 12-week maintenance period.
Patients were titrated to their target dose over two weeks, and then remained at that fixed dose for 12 weeks. The mean baseline convulsive seizure frequency across the study groups was approximately 40 seizures per month. 110 (92%) patients completed the study (85% 0.8 mg/kg/day; 100% 0.2 mg/kg/day; 93% placebo).
The proportion of patients who achieved ≥75% seizure reductions, a secondary (non-key) efficacy measure, is also presented.
The mean number of convulsive seizure free days, defined as a day for which diary data are available and no convulsive seizures have been reported, was determined for each treatment group during the Baseline and T+M Periods. […]

SMILES: CCNC(C)Cc1cccc(C(F)(F)F)c1 (racemic) [Fenfluramine, (RS)—N-ethyl-1-[3-(trifluoromethyl)phenyl]propan-2-amine]
- >50% Reduction in Seizures (responders) ([1]; Fenfluramine and Valproate, average 0.34 mg/kg/day for between 1 and 22 years): 75%
- heart valve defects monitored by echocardiography ([1]; long-term treatment): No clinically relevant defects were identified
- types of seizures reduced ([1]; long-term treatment): effectively reduced the incidence of all types of seizures
- reduction from Baseline in non-convulsive seizure frequency (all types) [2]: 59.1%
